Experimental data from PMC8500837, “The tertiary structure of the human Xkr8–Basigin complex that scrambles phospholipids at plasma membranes” (Nature Structural & Molecular Biology, 2021).
Residue numbers refer to the chain shown, from its start. Structures can show the parent of a compound that is named as a salt.

Columns and labels:
[1] = target: T1, mXkr8 (mXkr8-GFP; mXkr8–BSG complex) (Mus musculus, UniProt Q8C0T0, W45A); test: flow cytometry of NBD-SM internalization (BSA back-extraction) in Ba/F3 transformants; assay type: cell-based; settings: 0.5 µM NBD-SM, 20 °C, labelled compound; constitutively active mutant
T1 construct: gene Xkr8; full length, C-terminal GFP tag, stably expressed in TMEM16F-/- Xkr8-/- mouse Ba/F3 cells; endogenous Basigin (or Neuroplastin) as partner; with Basigin
T1 sequence (Q8C0T0 1-401 W45A): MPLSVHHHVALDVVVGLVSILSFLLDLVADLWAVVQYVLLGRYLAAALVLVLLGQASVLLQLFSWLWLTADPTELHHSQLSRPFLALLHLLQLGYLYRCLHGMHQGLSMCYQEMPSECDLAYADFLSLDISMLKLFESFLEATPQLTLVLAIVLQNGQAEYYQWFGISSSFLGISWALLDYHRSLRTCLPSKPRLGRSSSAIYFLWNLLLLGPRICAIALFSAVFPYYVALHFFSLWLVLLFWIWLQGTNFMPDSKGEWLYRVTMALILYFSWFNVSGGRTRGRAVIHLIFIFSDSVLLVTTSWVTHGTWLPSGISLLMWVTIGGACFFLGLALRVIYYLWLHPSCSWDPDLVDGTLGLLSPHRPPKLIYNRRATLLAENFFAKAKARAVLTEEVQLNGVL
T1 sequence (P18572 22-389 partner): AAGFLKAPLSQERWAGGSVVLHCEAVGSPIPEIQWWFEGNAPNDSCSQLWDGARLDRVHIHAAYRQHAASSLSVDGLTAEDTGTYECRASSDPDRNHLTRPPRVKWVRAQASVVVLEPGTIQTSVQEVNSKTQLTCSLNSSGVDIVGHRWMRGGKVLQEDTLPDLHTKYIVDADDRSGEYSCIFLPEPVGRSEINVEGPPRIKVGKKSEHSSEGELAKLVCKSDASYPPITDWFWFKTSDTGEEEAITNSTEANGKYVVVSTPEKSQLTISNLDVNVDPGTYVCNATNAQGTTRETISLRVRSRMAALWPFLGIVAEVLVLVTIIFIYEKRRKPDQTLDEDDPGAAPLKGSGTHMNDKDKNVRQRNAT

[2] = target: T2, mXkr8 (mXkr8-GFP; mXkr8–BSG complex) (Mus musculus, UniProt Q8C0T0); test: as above; assay type: cell-based; settings: 0.5 µM NBD-SM, 4 °C or 20 °C, labelled compound; lipid scrambling outer to inner leaflet
T2 construct: gene Xkr8; full length, C-terminal GFP tag, stably expressed in TMEM16F-/- Xkr8-/- mouse Ba/F3 cells; endogenous Basigin (or Neuroplastin) as partner; with Basigin
T2 sequence (Q8C0T0 1-401): T1 sequence (Q8C0T0 1-401 W45A) with A45W
T2 sequence (P18572 22-389 partner): T1 sequence (P18572 22-389 partner)

fold internalization vs wild type [1]: ~ 3 fold
Structure (SMILES): CCCCCCCCCCCCC/C=C/[C@@H](O)[C@H](COP(=O)([O-])OCC[N+](C)(C)C)NC(=O)CCCCCNc1ccc([N+](=O)[O-])c2nonc12 [NBD-SM, (7S)-4-hydroxy-7-[(1R,2E)-1-hydroxy-2-hexadecen-1-yl]-N,N,N-trimethyl-14-[(7-nitro-2,1,3-benzoxadiazol-4-yl)amino]-9-oxo-3,5-dioxa-8-aza-4-phosphatetradecan-1-aminium, 4-oxide inner salt]
flow cytometry of NBD-SM internalization (BSA back-extraction) in Ba/F3 transfor [2]: Ba/F3 cell transformants expressing wild-type Xkr8 efficiently incorporated NBD-SM
